Values after ≈ are worked out from the molar mass of the structure shown. Values joined by “and” are separate entries in the source; they are usually repeats but may differ in a detail not shown here. Identical values can stand only once. Marks after values point to notes of the source that are not given here.
What was measured:
[1] = test system: ALT (alanine aminotransferase); experiment: 14-day multiple-dose study: serum ALT / AST levels; type: in vivo, human
Description: The serum alanine aminotransferase (ALT) level can be measured using commercially available methods. Mean ALT levels, elevated at baseline, decreased during dosing in all groups (FIG. 6). Mean ALT levels increased, returned toward baseline, in all dose groups during follow up.

[2] = molecular target: HCV NS3/4A protease (Hepatitis C virus genotype 1a, UniProt P27958); experiment: In vitro cleavage of TRIF by HCV NS3 protease; type: biochemical; settings: 10 μM VX-950, tNS3 0-4 μM
Sequence of HCV NS3/4A protease (P27958 1027-1208, other chains not shown): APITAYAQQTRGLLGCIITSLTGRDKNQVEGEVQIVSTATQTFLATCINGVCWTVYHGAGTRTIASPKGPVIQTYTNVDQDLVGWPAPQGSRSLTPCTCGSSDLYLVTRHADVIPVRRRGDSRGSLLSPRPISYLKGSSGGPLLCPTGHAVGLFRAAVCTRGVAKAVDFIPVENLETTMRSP
Method: The 35S methionine labeled coupled in vitro transcription/translation product of TRIF protein (as a substrate) was incubated with increasing concentration of tNS3 protease enzyme ranging from 0-4 μM either in the presence (Circles) or absence (Squares) of 10 μM VX-950, followed by SDS-PAGE and exposure to phosphorimager.

[3] = test system: hepatitis C virus (HCV) replicon; experiment: HCV replicon cell assay; settings: 48 h
[4] = clinical; settings: male, human, in vivo, po
Method: (§2) A dose escalation scheme was used that combined dose doubling and modified Fibonacci to be aggressive in the lower dose range and conservative in the higher dose range.
(§3) A pharmacokinetics analysis was performed using the statistical moment approach.

[5] = Single-dose escalation tolerance and pharmacokinetics study in healthy male volunteers (Example 3); settings: single doses 25 mg to 1250 mg
Method: as §2, §3

[6] = test system: genotype 1 hepatitis C; experiment: Phase 1b 14-day study of VX-950, VX-950/Peg-IFN-2a or Peg-IFN-2a followed by Peg-IFN-2a/RBV: HCV RNA and SVR (Example 9); settings: for patients who achieved SVR: 14 days of VX-950 (alone or in combination with PEG-IFN) then PEG-IFN with RBV
[7] = test system: infectious virus; experiment: Infectious virus assay; type: cell-based
[8] = test system: IFN-β promoter activity; experiment: IFN-β promoter luciferase activity in Sendai virus stimulated Huh7 cells expressing HCV protease; settings: 10 μM VX-950, Huh7 cells, Sendai virus stimulation, 16 hours post-infection
[9] = test system: WT-HCV protease-SEAP; settings: SCID mice expressing WT-HCV protease-SEAP; cited from earlier work
[10] = human, in vivo
Method: as §2, §3

[11] = in vivo
[12] = Predicted human liver exposure relative to replicon assay IC50/IC90; settings: in the dose range studied
[13] = test system: HCV genotype 1; experiment: 14-day multiple-dose study in Hepatitis C positive subjects: plasma HCV RNA (Example 5); type: in vivo, human; settings: for mean HCV RNA drop: 750 mg q8h
Method: Detection of HCV RNA can be done, e.g., by using the Roche COBAS TaqMan HCV/HPS assay, available from Roche molecular Diagnostics. Subjects (or patients) receiving 750 mg of VX-950 every eight hours for 14 days achieved a median reduction in HCV-RNA of greater than 4 log10 (i.e., 10,000-fold decrease) at the end of the treatment. […] See Example 5 and FIGS. 3-5.
(§1) All other 34 subjects completed the study.
The HCV positive subjects were tested post-treatment to monitor HCV RNA levels' return to baseline.

[14] = test system: neopterin; experiment: 14-day multiple-dose study: serum neopterin (ELISA)
[15] = Multiple-dose study (Example 5): tolerability and VX-950 plasma trough levels; type: in vivo, human
Method: as §1
The assay for determined VX-950 concentration in human plasma was performed by methods well known in the art. See, e.g., Wasley, A. et al., Semin. Liver Dis., 20:1-16, 2000; Alter, H. J. et al., Semin. Liver Dis., 20: 17-35, 2000; Brown, R. S. Jr. et al., Liver Transpl., 9: S10-S13, 2003; DeFrancesco, R. et al., Nature, 436(7053): 953-960, 2005; Bowen, D. G. et al., J. Hepatol., 42: 408-417, 2005; Hoofnagle, J. H., Hepatology, 36: S21-S29, 2002, Brown, R. S. Jr. et al., Nature, 436 (7053): 973-978, 2005; and Chisari, F. V., Nature, 436(7053): 930-932, 2005.
Sample Preparation: 100 μL of plasma and 100 μL of internal standard working solution (or acetonitrile for blank samples) were added to an extraction tube. After vortex mixing for 30 seconds, 500 μL of toluene was added and extraction was performed by vortex mixing for 30 seconds. After centrifugation at 3000 rpm at 4° C. for 5 minutes, the aqueous layer was frozen in a mixture of acetone and dry ice and the organic layer was transferred to another extraction tube. 50 μL of 2,2-dimethoxypropane was added and the samples were evaporated to dryness under nitrogen at approximately 30° C. The residue was re-dissolved in 300 μL of a mixture of heptane and acetone (90:10, v/v) [or a mixture of heptane and THF (80:20, v/v)] by vortex mixing for 60 seconds. […]

[16] = test system: HCV; settings: monotherapy, fraction of cases; cited from earlier work
[17] = at the completion of the 14-day dosing period
[18] = of the 8 subjects receiving 750 mg q8h

CCC[C@H](NC(=O)[C@@H]1[C@H]2CCC[C@H]2CN1C(=O)[C@@H](NC(=O)[C@@H](NC(=O)c1cnccn1)C1CCCCC1)C(C)(C)C)C(=O)C(=O)NC1CC1 [VX-950]
median ALT value ([1]; 450 mg q8h, day 12, 5 out of 10 samples missing (range 25-125)): 38 U/I
effect on ALT levels in vivo ([1]; 14 days dosing): decreases
effect on AST (aspartate aminotransferase) levels ([1]; upon administration): decreased
effect on in vitro cleavage of TRIF by NS3 protease [2]: inhibits in vitro cleavage of TRIF
IC50 ([3]; read-out: IC50 in the replicon assay): ~0.24 µg/mL (≈ 0.353 µM)
IC90 ([3]; read-out: IC90 in the replicon assay): ~0.476 µg/mL (≈ 0.7 µM)
Tmax [4]: 3 h
tolerability of single doses [5]: well tolerated at all dose levels
SVR after a 2 week treatment of VX-950 ([6]; 2 week treatment): SVR was achieved in a patient
HCV RNA levels at the last off-study follow-up day ([6]; 12 weeks after the last on-study follow-up, patients who continued with Peg-IFN-2a/RBV): undetectable in all patients
antiviral activity ([6]; 14 days): rapid and profound antiviral activity
patients who achieved SVR ([6]; treated for 24 weeks): 7 of 10
patients who achieved SVR ([6]; treated for 48 weeks): 3 of 5
patients in whom SVR was achieved ([6]; 14 days of VX-950 optionally in combination with Peg-INF, followed by Peg-INF/RBV for an additional 22 or 46 weeks): 10 of 15
decrease of HCV RNA levels, generally [6, 17]: at least 2 log10
decrease of HCV RNA levels, in some cases [6, 17]: at least 4 log10
patients with undetectable HCV RNA ([6]; at week 12): 5 of 7
patients with undetectable HCV RNA ([6]; at week 24, all patients who received VX-950 (alone or with PEG-IFN)): 15
Undetectable HCV RNA at 24-week off study peg-IFN-2a/RBV treatment ([6]; group sizes N 7 / 8 / 4): 7* N
Undetectable HCV RNA at 12 weeks follow-up after stopping peg-IFN-2a/RBV ([6]; patients who stopped Peg-IFN-2a/RBV at week 24): 2 of 4 and 2/4
IC50 [7]: 0.196 µg/mL (≈ 0.288 µM)
effect on WT HCV protease mediated suppression of IFNβ promoter activation [8]: overcomes the WT HCVpro mediated suppression of IFNβ promoter activation
effect on elevated ALT levels in an animal model [9]: ameliorates elevated ALT levels
oral bioavailability ([10]; po): orally bioavailable
VX-950 eliminated unchanged in the urine ([10]; male): Less than 2%
tolerability [11]: well tolerated
predicted average liver concentration as multiple of replicon assay IC50 [12]: up to 113 fold
predicted average liver concentration as multiple of replicon assay IC90 [12]: up to 57 fold
Maximum change from baseline in HCV RNA (log10 IU/mL): subjects in category >−1 to <0 ([13]; 450 mg q8h (n = 10)): 0 n (%)
Maximum change from baseline in HCV RNA (log10 IU/mL): subjects in category >−2 to ≦−1 ([13]; 450 mg q8h (n = 10)): 0 n (%)
Maximum change from baseline in HCV RNA (log10 IU/mL): subjects in category >−3 to ≦−2 ([13]; 450 mg q8h (n = 10)): 1 (10.0) n (%)
Maximum change from baseline in HCV RNA (log10 IU/mL): subjects in category >−4 to ≦−3 ([13]; 450 mg q8h (n = 10)): 7 (70.0) n (%)
Maximum change from baseline in HCV RNA (log10 IU/mL): subjects in category >−5 to ≦−4 ([13]; 450 mg q8h (n = 10)): 0 n (%)
Maximum change from baseline in HCV RNA (log10 IU/mL): subjects in category ≧−5 ([13]; 450 mg q8h (n = 10)): 2 (20.0) n (%)
median reduction in HCV-RNA ([13]; 750 mg every eight hours, end of 14 days): greater than 4 log10
Maximum change from baseline in HCV RNA (log10 IU/mL): subjects in category >−1 to <0 ([13]; 750 mg q8h (n = 8)): 0 n (%)
Maximum change from baseline in HCV RNA (log10 IU/mL): subjects in category >−2 to ≦−1 ([13]; 750 mg q8h (n = 8)): 0 n (%)
Maximum change from baseline in HCV RNA (log10 IU/mL): subjects in category >−3 to ≦−2 ([13]; 750 mg q8h (n = 8)): 0 n (%)
Maximum change from baseline in HCV RNA (log10 IU/mL): subjects in category >−4 to ≦−3 ([13]; 750 mg q8h (n = 8)): 3 (37.5) n (%)
Maximum change from baseline in HCV RNA (log10 IU/mL): subjects in category >−5 to ≦−4 ([13]; 750 mg q8h (n = 8)): 3 (37.5) n (%)
Maximum change from baseline in HCV RNA (log10 IU/mL): subjects in category ≧−5 ([13]; 750 mg q8h (n = 8)): 2 (25.0) n (%)
mean HCV RNA drop ([13]; day 3): 3.6 log10
mean HCV RNA drop ([13]; day 14): 4.3 log10
Maximum change from baseline in HCV RNA (log10 IU/mL): subjects in category >−1 to <0 ([13]; 1250 mg q12h (n = 10)): 0 n (%)
Maximum change from baseline in HCV RNA (log10 IU/mL): subjects in category >−2 to ≦−1 ([13]; 1250 mg q12h (n = 10)): 0 n (%)
Maximum change from baseline in HCV RNA (log10 IU/mL): subjects in category >−3 to ≦−2 ([13]; 1250 mg q12h (n = 10)): 1 (10.0) n (%)
Maximum change from baseline in HCV RNA (log10 IU/mL): subjects in category >−4 to ≦−3 ([13]; 1250 mg q12h (n = 10)): 9 (90.0) n (%)
Maximum change from baseline in HCV RNA (log10 IU/mL): subjects in category >−5 to ≦−4 ([13]; 1250 mg q12h (n = 10)): 0 n (%)
Maximum change from baseline in HCV RNA (log10 IU/mL): subjects in category ≧−5 ([13]; 1250 mg q12h (n = 10)): 0 n (%)
drop in viral load in every patient ([13]; all dose groups, during administration): at least 2 log10
median reduction of HCV-RNA ([13]; each of the other two dose groups (450 mg q8h, 1250 mg q12h), end of 14 days): greater than 2 log10
effect on HCV replication in humans ([13]; human, in vivo): effective in inhibiting HCV replication
subjects with HCV RNA below the limit of detection (LLD 10 IU/mL) [13, 18]: 2
subjects with HCV RNA below the limit of quantitation (LLQ 30 IU/mL) [13, 18]: 4
subjects with a 3 log10 reduction in HCV-RNA ([13]; within the first three days of treatment): 26 of the 28
reduction in HCV-RNA achieved by every subject ([13]; within the first three days of treatment, all dose groups): greater than 2 log10
mean neopterin level ([14]; 750 mg q8h, day 14 (baseline 10.48±0.84 nmol/L; ULN 7.7)): 7.32 ± 0.48 nmol/L
effect on neopterin levels in vivo ([14]; 14 days dosing): decreases
tolerability of multiple doses ([15]; 450 mg, 750 mg or 1250 mg, 5 or 14 days): well tolerated at all dose levels
trough levels of VX-950 in plasma ([15]; about 750 mg three times a day, every 8 hours, compared with other regimens): highest trough levels

interferon alfa
long term remission [16]: ~25%

— patent US20100189688A1, “Dose forms comprising VX-950 and their dosage regimen” (priority 2007, published 2010)
